Experiment [1] deals with T1, Dickkopf WNT-signaling pathway inhibitor 1 (Rattus norvegicus) (UniProt A6I0Z0).
T1 sequence (whole entry): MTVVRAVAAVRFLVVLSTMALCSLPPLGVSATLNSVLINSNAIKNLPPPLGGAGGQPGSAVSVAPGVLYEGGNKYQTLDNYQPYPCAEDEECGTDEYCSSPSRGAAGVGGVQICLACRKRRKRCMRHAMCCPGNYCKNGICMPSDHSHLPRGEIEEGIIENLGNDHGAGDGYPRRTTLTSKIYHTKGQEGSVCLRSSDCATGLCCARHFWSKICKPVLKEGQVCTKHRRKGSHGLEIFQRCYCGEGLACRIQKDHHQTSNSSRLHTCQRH
Description: (§1) Inhibition of biotin-labeled rat recombinant DKK1 assessed as reduction in DKK1 interaction with LRP-6/Fc incubated overnight by chemiluminescence based Alpha-screen assay. A general note: Alpha assays give light when donor and acceptor beads are brought close together.

In experiment [2] the target is T2, Dickkopf-related protein 1 (Homo sapiens) (UniProt O94907).
T2 sequence (whole entry): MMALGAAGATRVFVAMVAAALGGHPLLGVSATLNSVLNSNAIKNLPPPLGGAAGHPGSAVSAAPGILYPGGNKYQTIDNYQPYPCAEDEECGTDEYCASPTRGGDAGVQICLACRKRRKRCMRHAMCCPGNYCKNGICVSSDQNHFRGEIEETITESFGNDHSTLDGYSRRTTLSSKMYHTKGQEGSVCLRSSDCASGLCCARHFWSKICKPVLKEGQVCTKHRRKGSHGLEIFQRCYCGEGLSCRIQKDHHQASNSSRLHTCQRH
Description: (§2) Inhibition of biotin-labeled human recombinant DKK1 assessed as reduction in DKK1 interaction with LRP-6/Fc incubated overnight by chemiluminescence based Alpha-screen assay.

Experiment [3] has as its target T3, Dickkopf-related protein 1 (Homo sapiens, UniProt O94907).
T3 sequence (O94907 whole entry): T2 sequence (whole entry)
Description: Inhibition of human DKK1 in MC3T3E1/TetON-Wnt1/STF-Luc#5 cells assessed as DKK1 neutralizing activity by Wnt1-induced TCF/LEF luciferase reporter gene assay. (In general: A reporter such as luciferase makes a cellular process visible.)

The target in experiment [4] is T4, Dickkopf WNT-signaling pathway inhibitor 1 (Rattus norvegicus, UniProt A6I0Z0).
T4 sequence (A6I0Z0 whole entry): T1 sequence (whole entry)
Described as §1.

In experiment [5] the target is T3, Dickkopf-related protein 1. The experiment is described as §2.

From ChEMBL document CHEMBL4417633, “Inhibitory polypeptides specific to WNT inhibitors” (2017) come the findings set out here.

Active and inactive are the calls of the source. The calls are words filed in the database; no cut-off is given here. Where a SMILES comes first, the peptide text is derived from it.

Regarding `CSCC[C@H](NC(=O)[C@@H]1CCCN1C(=O)[C@H](Cc1ccc(O)cc1)NC(=O)[C@H](CS)NC(=O)[C@H](Cc1cnc[nH]1)NC(=O)[C@@H]1CCCN1C(=O)[C@H](Cc1cnc[nH]1)NC(=O)[C@H](CCCNC(=N)N)NC(=O)[C@H](CCCNC(=N)N)NC(=O)[C@H](CS)NC(=O)[C@H](CCC(N)=O)NC(=O)[C@H](Cc1ccccc1)NC(=O)[C@H](Cc1ccc(O)cc1)NC(=O)[C@H](CO)NC(=O)[C@H](C)NC(=O)[C@@H]1CCCN1C(=O)[C@@H](N)CS)C(=O)N[C@@H](CCC(=O)O)C(=O)N[C@@H](Cc1c[nH]c2ccccc12)C(=O)N[C@@H](CCCNC(=N)N)C(=O)N[C@@H](CS)C(=O)N[C@@H](CC(=O)O)C(=O)NCC(=O)N[C@@H](Cc1ccccc1)C(=O)N1CCC[C@H]1C(=O)N[C@@H](CC(=O)O)C(=O)N[C@@H](CS)C(=O)N[C@@H](CC(C)C)C(=O)N[C@@H](CC(=O)O)C(=O)NCC(=O)N[C@@H](CO)C(=O)N[C@@H](CC(=O)O)C(=O)N[C@@H](CCC(=O)O)C(=O)N[C@@H](CCC(=O)O)C(=O)NCC(=O)N[C@@H](CS)C(=O)NCC(=O)NCC(=O)NCC(=O)NCC(=O)O` (H-CPASYFQCRRHPHCYPMEWRCDGFPDCLDGSDEEGCGGGG-OH), the inhibition result in experiment [1] and in experiment [2] was “Active” in each case. For the same molecule, the IC50 (as a rule, the point on the concentration scale where inhibition reaches its midpoint) in experiment [3] fell in the range of 0.8 to 3 nM.
Turning to `CSCC[C@H](NC(=O)[C@@H]1CCCN1C(=O)[C@H](Cc1ccc(O)cc1)NC(=O)[C@H](CS)NC(=O)[C@H](Cc1cnc[nH]1)NC(=O)[C@@H]1CCCN1C(=O)[C@H](Cc1cnc[nH]1)NC(=O)[C@H](CC(N)=O)NC(=O)[C@H](CCCNC(=N)N)NC(=O)[C@H](CS)NC(=O)[C@H](CCC(N)=O)NC(=O)[C@H](Cc1ccccc1)NC(=O)[C@H](Cc1ccc(O)cc1)NC(=O)[C@H](CO)NC(=O)[C@@H](NC(=O)[C@@H]1CCCN1C(=O)[C@@H](N)CS)C(C)C)C(=O)N[C@@H](CCC(=O)O)C(=O)N[C@@H](Cc1c[nH]c2ccccc12)C(=O)N[C@@H](CCCNC(=N)N)C(=O)N[C@@H](CS)C(=O)N[C@@H](CC(=O)O)C(=O)NCC(=O)N[C@@H](Cc1ccccc1)C(=O)N1CCC[C@H]1C(=O)N[C@@H](CC(=O)O)C(=O)N[C@@H](CS)C(=O)N[C@@H](CC(C)C)C(=O)N[C@@H](CC(=O)O)C(=O)N[C@@H](CCC(=O)O)C(=O)N[C@@H](CO)C(=O)N[C@@H](CC(=O)O)C(=O)N[C@@H](CCC(=O)O)C(=O)N[C@@H](CCCCN)C(=O)NCC(=O)N[C@@H](CS)C(=O)NCC(=O)NCC(=O)NCC(=O)NCC(=O)O` (H-CPVSYFQCRNHPHCYPMEWRCDGFPDCLDESDEKGCGGGG-OH), the inhibition entry in experiment [1] and in experiment [2] was “Active” each time. In addition, in experiment [3], the IC50 lay in the range of 0.8 to 3 nM.
Turning to `CSCC[C@H](NC(=O)[C@@H]1CCCN1C(=O)[C@H](Cc1ccc(O)cc1)NC(=O)[C@H](CS)NC(=O)[C@H](Cc1cnc[nH]1)NC(=O)[C@H](CC(N)=O)NC(=O)[C@H](Cc1cnc[nH]1)NC(=O)[C@H](CCCCN)NC(=O)[C@H](CCCNC(=N)N)NC(=O)[C@H](CS)NC(=O)[C@H](CCCCN)NC(=O)[C@H](Cc1ccccc1)NC(=O)[C@H](Cc1ccc(O)cc1)NC(=O)[C@H](CO)NC(=O)[C@H](C)NC(=O)[C@@H]1CCCN1C(=O)[C@@H](N)CS)C(=O)N[C@@H](CCC(=O)O)C(=O)N[C@@H](Cc1c[nH]c2ccccc12)C(=O)N[C@@H](CCCNC(=N)N)C(=O)N[C@@H](CS)C(=O)N[C@@H](CC(=O)O)C(=O)NCC(=O)N[C@@H](Cc1ccccc1)C(=O)N[C@@H](CCC(N)=O)C(=O)N[C@@H](CC(=O)O)C(=O)N[C@@H](CS)C(=O)N[C@@H](CCC(=O)O)C(=O)N[C@@H](CC(=O)O)C(=O)NCC(=O)N[C@@H](CO)C(=O)N[C@@H](CC(=O)O)C(=O)N[C@@H](CCC(=O)O)C(=O)N[C@@H](CCC(N)=O)C(=O)N[C@@H](C)C(=O)N[C@@H](CS)C(=O)N1CCC[C@H]1C(=O)N[C@@H](Cc1ccc(O)cc1)C(=O)N[C@@H](CCCNC(=N)N)C(=O)N[C@H](C(=O)O)[C@@H](C)O` (H-CPASYFKCRKHNHCYPMEWRCDGFQDCEDGSDEQACPYRT-OH), the IC50 in experiment [4] and in experiment [5] was not above 1 nM each time.
On to `CSCC[C@H](NC(=O)[C@@H]1CCCN1C(=O)[C@H](Cc1ccc(O)cc1)NC(=O)[C@H](CS)NC(=O)[C@H](Cc1cnc[nH]1)NC(=O)[C@H](CCCCN)NC(=O)[C@H](CC(N)=O)NC(=O)[C@H](Cc1cnc[nH]1)NC(=O)[C@H](CCCNC(=N)N)NC(=O)[C@H](CS)NC(=O)[C@H](CCC(N)=O)NC(=O)[C@H](Cc1ccccc1)NC(=O)[C@H](Cc1ccc(O)cc1)NC(=O)[C@H](CO)NC(=O)[C@H](C)NC(=O)[C@@H]1CCCN1C(=O)[C@@H](N)CS)C(=O)N[C@@H](CCC(=O)O)C(=O)N[C@@H](Cc1c[nH]c2ccccc12)C(=O)N[C@@H](CCCNC(=N)N)C(=O)N[C@@H](CS)C(=O)N[C@@H](CC(=O)O)C(=O)NCC(=O)N[C@@H](Cc1ccccc1)C(=O)N1CCC[C@H]1C(=O)N[C@@H](CC(=O)O)C(=O)N[C@@H](CS)C(=O)N[C@@H](CCC(=O)O)C(=O)N[C@@H](CC(=O)O)C(=O)NCC(=O)N[C@@H](CO)C(=O)N[C@@H](CC(=O)O)C(=O)N[C@@H](CCC(=O)O)C(=O)N[C@@H](CC(C)C)C(=O)N[C@@H](CO)C(=O)N[C@@H](CS)C(=O)N1CCC[C@H]1C(=O)N[C@@H](Cc1ccc(O)cc1)C(=O)N[C@@H](CCCNC(=N)N)C(=O)N[C@H](C(=O)O)[C@@H](C)O` (H-CPASYFQCRHNKHCYPMEWRCDGFPDCEDGSDELSCPYRT-OH), for which the IC50 in experiment [4] and in experiment [5] was not above 1 nM throughout.
Consider `CC[C@H](C)[C@H](NC(=O)[C@H](CC(=O)O)NC(=O)CNC(=O)[C@H](CC(=O)O)NC(=O)[C@H](CS)NC(=O)[C@H](CC(C)C)NC(=O)[C@H](Cc1ccccc1)NC(=O)[C@H](CO)NC(=O)[C@H](Cc1ccccc1)NC(=O)[C@@H]1CCCN1C(=O)[C@H](Cc1ccccc1)NC(=O)[C@H](CS)NC(=O)[C@@H](NC(=O)[C@H](CCCCN)NC(=O)[C@H](CC(=O)O)NC(=O)[C@H](C)NC(=O)[C@H](CS)NC(=O)[C@H](CCSC)NC(=O)[C@H](Cc1ccccc1)NC(=O)[C@H](CCC(=O)O)NC(=O)[C@H](CC(N)=O)NC(=O)[C@H](CCC(N)=O)NC(=O)[C@@H]1CCCN1C(=O)[C@@H](N)CS)[C@@H](C)O)C(=O)N[C@@H](CC(=O)O)C(=O)N[C@@H](CS)C(=O)N[C@@H](Cc1ccc(O)cc1)C(=O)N[C@@H](CC(=O)O)C(=O)NCC(=O)N[C@@H](CO)C(=O)N[C@@H](CC(=O)O)C(=O)N[C@@H](CCC(=O)O)C(=O)N[C@@H](C)C(=O)N[C@@H](Cc1ccc(O)cc1)C(=O)N[C@@H](CS)C(=O)N1CCC[C@H]1C(=O)N[C@@H](CO)C(=O)N[C@@H](CCCNC(=N)N)C(=O)N[C@H](C(=O)O)[C@@H](C)O` (H-CPQNEFMCADKTCFPFSFLCDGDIDCYDGSDEAYCPSRT-OH), for which the half-inhibitory concentration (IC50) in experiment [4] and in experiment [5] was not above 1 nM in each case.
With `CSCC[C@H](NC(=O)[C@@H]1CCCN1C(=O)[C@H](Cc1ccc(O)cc1)NC(=O)[C@H](CS)NC(=O)[C@H](Cc1cnc[nH]1)NC(=O)[C@H](CC(N)=O)NC(=O)[C@H](Cc1ccc(O)cc1)NC(=O)[C@H](CC(N)=O)NC(=O)[C@H](CCCNC(=N)N)NC(=O)[C@H](CS)NC(=O)[C@H](CCC(N)=O)NC(=O)[C@H](Cc1ccccc1)NC(=O)[C@H](Cc1ccc(O)cc1)NC(=O)[C@H](CO)NC(=O)[C@H](C)NC(=O)[C@@H]1CCCN1C(=O)[C@@H](N)CS)C(=O)N[C@@H](CCC(=O)O)C(=O)N[C@@H](Cc1c[nH]c2ccccc12)C(=O)N[C@@H](CCCNC(=N)N)C(=O)N[C@@H](CS)C(=O)N[C@@H](CC(=O)O)C(=O)NCC(=O)N[C@@H](Cc1ccccc1)C(=O)N[C@@H](CCC(=O)O)C(=O)N[C@@H](CC(=O)O)C(=O)N[C@@H](CS)C(=O)N[C@@H](CC(C)C)C(=O)N[C@@H](CC(=O)O)C(=O)NCC(=O)N[C@@H](CO)C(=O)N[C@@H](CC(=O)O)C(=O)N[C@@H](CCC(=O)O)C(=O)N[C@H](C(=O)N[C@@H](CC(=O)O)C(=O)N[C@@H](CS)C(=O)N1CCC[C@H]1C(=O)N[C@@H](Cc1ccc(O)cc1)C(=O)N[C@@H](CCCNC(=N)N)C(=O)N[C@H](C(=O)O)[C@@H](C)O)[C@@H](C)O` (H-CPASYFQCRNYNHCYPMEWRCDGFEDCLDGSDETDCPYRT-OH), the IC50 in experiment [4] and in experiment [5] was not above 1 nM in each case.
With `CSCC[C@H](NC(=O)[C@@H]1CCCN1C(=O)[C@H](Cc1ccc(O)cc1)NC(=O)[C@H](CS)NC(=O)[C@H](Cc1cnc[nH]1)NC(=O)[C@@H]1CCCN1C(=O)[C@H](Cc1cnc[nH]1)NC(=O)[C@H](CC(N)=O)NC(=O)[C@H](CCCNC(=N)N)NC(=O)[C@H](CS)NC(=O)[C@H](CCC(N)=O)NC(=O)[C@H](Cc1ccccc1)NC(=O)[C@H](Cc1ccc(O)cc1)NC(=O)[C@H](CO)NC(=O)[C@H](C)NC(=O)[C@@H]1CCCN1C(=O)[C@@H](N)CS)C(=O)N[C@@H](CCC(=O)O)C(=O)N[C@@H](Cc1c[nH]c2ccccc12)C(=O)N[C@@H](CCCNC(=N)N)C(=O)N[C@@H](CS)C(=O)N[C@@H](CC(=O)O)C(=O)NCC(=O)N[C@@H](Cc1ccccc1)C(=O)N1CCC[C@H]1C(=O)N[C@@H](CC(=O)O)C(=O)N[C@@H](CS)C(=O)N[C@H](C(=O)N[C@@H](CC(=O)O)C(=O)NCC(=O)N[C@@H](CO)C(=O)N[C@@H](CC(=O)O)C(=O)N[C@@H](CCC(=O)O)C(=O)N[C@@H](CCCCN)C(=O)NCC(=O)N[C@@H](CS)C(=O)N1CCC[C@H]1C(=O)N[C@@H](Cc1ccc(O)cc1)C(=O)N[C@@H](CCCNC(=N)N)C(=O)N[C@H](C(=O)O)[C@@H](C)O)C(C)C` (H-CPASYFQCRNHPHCYPMEWRCDGFPDCVDGSDEKGCPYRT-OH), the IC50 in experiment [4] and in experiment [5] was not above 1 nM throughout.
